Results published in EP0276057B1, “Piperazinylpyrimidines as beta-adrenergic receptor blocking agents” (Merck & Co., Inc., priority 1987, dated 1988).

How the values were obtained:
ß1 = ß1 (Homo sapiens, UniProt P08588); test: Block of ligand binding to β-adrenergic receptor, ß1; details: for IC50: read-out: Concentration (nM) To Block Binding of Ligand by 50% ß1; for inhibition at 10 µM: at 10,000 nM, 50% blockade not achieved at reasonable concentrations, read-out: % blocked at nM concentration shown ß1
ß1, sequence (P08588 whole entry): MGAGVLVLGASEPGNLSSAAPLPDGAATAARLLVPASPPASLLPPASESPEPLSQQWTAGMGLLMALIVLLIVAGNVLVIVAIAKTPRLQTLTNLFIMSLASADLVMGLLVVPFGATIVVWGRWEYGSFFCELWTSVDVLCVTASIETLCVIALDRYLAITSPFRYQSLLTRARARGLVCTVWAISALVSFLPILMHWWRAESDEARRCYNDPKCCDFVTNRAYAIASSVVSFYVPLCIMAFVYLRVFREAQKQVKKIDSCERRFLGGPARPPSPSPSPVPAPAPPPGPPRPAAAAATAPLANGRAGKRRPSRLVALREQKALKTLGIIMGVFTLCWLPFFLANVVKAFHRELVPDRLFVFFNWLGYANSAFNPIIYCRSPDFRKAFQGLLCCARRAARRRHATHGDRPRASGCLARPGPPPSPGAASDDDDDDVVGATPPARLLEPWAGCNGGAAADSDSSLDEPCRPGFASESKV

ß2 = ß2 (Homo sapiens, UniProt P07550); test: Block of ligand binding to β-adrenergic receptor, ß2; details: for IC50: read-out: Concentration (nM) To Block Binding of Ligand by 50% ß2; for inhibition at 10 µM: at 10,000 nM, 50% blockade not achieved at reasonable concentrations, read-out: % blocked at nM concentration shown ß2
ß2, sequence (P07550 whole entry): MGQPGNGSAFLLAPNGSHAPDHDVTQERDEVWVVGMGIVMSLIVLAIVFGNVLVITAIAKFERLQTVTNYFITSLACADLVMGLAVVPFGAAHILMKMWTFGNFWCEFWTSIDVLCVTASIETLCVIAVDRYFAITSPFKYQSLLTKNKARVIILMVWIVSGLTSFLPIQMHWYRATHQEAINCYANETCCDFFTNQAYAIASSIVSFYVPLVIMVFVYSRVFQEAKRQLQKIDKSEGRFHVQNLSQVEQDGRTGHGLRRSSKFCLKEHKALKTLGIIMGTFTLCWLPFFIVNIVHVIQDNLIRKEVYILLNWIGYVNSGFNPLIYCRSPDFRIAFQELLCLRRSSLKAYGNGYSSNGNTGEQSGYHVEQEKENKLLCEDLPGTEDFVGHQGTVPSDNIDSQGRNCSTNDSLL

| SMILES | IC50 (ß1) [nM] | IC50 (ß2) [nM] | inhibition at 10 µM (ß1) [%] | inhibition at 10 µM (ß2) [%] |
| --- | --- | --- | --- | --- |
| CCc1nc(N2CCNCC2)c2sccc2n1 [R^1 = -C2H5, R^2 = H (the 2nd table r0 drawing)] | 300 | 140 | – | – |
| Cc1nc2c(c(N3CCN(Cc4ccccc4)CC3)n1)SCCC2 | – | – | 0 | 0 |
| CCCCc1nc2c(c(N3CCN(C)CC3)n1)SCCC2 | 4300 | 4800 | – | – |
| Cc1nc2c(c(N3CCNCC3)n1)SCCC2 [R^1 = -CH3, R^2 = H (the 1st table r1 drawing)] | 680 | 314 | – | – |
| CCc1nc(N2CCN(C)CC2)c2sccc2n1 | 2400 | 1040 | – | – |

Other lines, results leading:

| IC50 (ß1) [nM] | IC50 (ß2) [nM] | inhibition at 10 µM (ß1) [%] | inhibition at 10 µM (ß2) [%] | SMILES |
| --- | --- | --- | --- | --- |
| – | – | 15 | 24 | Cc1nc2c(c(N3CCN(C)CC3)n1)CSC2 |
| – | 27000 | 3 | – | CCN1CCN(c2nc(C)nc3c2SCCC3)CC1 |
| – | – | 6 | 8 | Cc1nc2c(c(N3CCN(C4CC4)CC3)n1)SCCC2 |
| 820 | 340 | – | – | Cc1nc2c(c(N3CCNCC3)n1)CSC2 [R^1 = -CH3, R^2 = H (the 1st table r11 drawing)] |
